Source: patent US7348425B2, “Inhibitors of HCV replication” (Bristol-Myers Squibb Company, priority 2004, dated 2008)

The compounds below were run on HCV replicon (assay: HCV replicon FRET assay). Settings: Hepatitis C virus; FRET assay; read-out: EC50.
Type: cell-based
Method in brief: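 Replicon cells (± Renilla luciferase reporter) incubated with titrated compound at 37 °C; NS3 protease activity read by FRET peptide cleavage (20 uM EDANS/DABCYL substrate, 340/490 nm kinetic) or luciferase.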
`O=C(O)c1ccc2c(C3CCCCC3)c3n(c2c1)CC(C(=O)N1CCOCC1)=Cc1cccnc1-3` showed an EC50 of 0.01 to 1 µM.
`O=C(NS(=O)(=O)c1ccccc1)c1ccc2c(C3CCCCC3)c3n(c2c1)C[C@@H](O)[C@@H](O)c1ncccc1-3` showed an EC50 of 1 to 10 µM.
`COc1ccc2c(c1)CC(C(=O)N(CCO)CCO)Cn1c-2c(C2CCCCC2)c2ccc(C(=O)NS(=O)(=O)N(C)C)cc21` (stereo not drawn) gave an EC50 of 0.05 to 1 µM.
Compound `CN(C)S(=O)(=O)NC(=O)c1ccc2c(C3CCCCC3)c3n(c2c1)CC(C(=O)N1CCOCC1)=Cc1ccc(Cl)cc1-3` has an EC50 of 1 to 10 µM.
With `O=C(O)/C=C/c1ccc(NC(=O)C2(NC(=O)c3ccc4c(C5CCCCC5)c5n(c4c3)CC(C(=O)N3CCCCC3)Cc3ccccc3-5)CCCC2)cc1` (stereo not drawn) the EC50 was 0.01 to 1 µM.
`CS(=O)(=O)NC(=O)c1ccc2c(C3CCCCC3)c3n(c2c1)CCCc1ncccc1-3` gave an EC50 of 1 to 10 µM.
`CN(C)S(=O)(=O)NC(=O)c1ccc2c(C3CCCCC3)c3n(c2c1)CC(C(=O)N1CCNCC1)=Cc1ccccc1-3` gave an EC50 of 0.01 to 1 µM.
With `Cn1cnc(S(=O)(=O)NC(=O)c2ccc3c(C4CCCCC4)c4n(c3c2)CCCc2ncccc2-4)c1` the EC50 was 1 to 10 µM.
For `O=C(NS(=O)(=O)C1CC1)c1ccc2c(C3CCCCC3)c3n(c2c1)CC(C(=O)N1CCOCC1)Cc1ccccc1-3` (stereo not drawn) [drawing 287], the EC50 was 0.01 to 1 µM.
In the case of `C[C@@H]1CN(C(=O)C2=Cc3ccccc3-c3c(C4CCCCC4)c4ccc(C(=O)NC5(C(=O)Nc6nccs6)CCCC5)cc4n3C2)C[C@H](C)O1`, the EC50 is reported as 0.05 to 1 µM.
`COC(=O)C1=C(C)c2ccccc2-c2c(C3CCCCC3)c3ccc(C(=O)OC)cc3n2C1` was tested, and the EC50 was 0.01 to 1 µM.
`CN(C)S(=O)(=O)NC(=O)c1ccc2c(C3CCCCC3)c3n(c2c1)CCCc1ncccc1-3` gave an EC50 of 0.01 to 1 µM.
For `CC(C)(C)OC(=O)N1CCCCn2c(c(C3CCCCC3)c3ccc(C(=O)O)cc32)-c2cnccc21`, the EC50 was > 10 µM.
`O=C(O)c1ccc2c(C3CCCCC3)c3n(c2c1)CC(O)Cc1ccccc1-3` (stereo not drawn) showed an EC50 of 1 to 10 µM.
For `C[C@@H]1CN(C(=O)C2=Cc3cc(F)ccc3-c3c(C4CCCCC4)c4ccc(C(=O)NS(=O)(=O)N(C)C)cc4n3C2)C[C@H](C)O1`, the EC50 was 0.05 to 1 µM.
Work on `C[C@@H]1CN(C(=O)C2=Cc3cc(F)ccc3-c3c(C4CCCCC4)c4ccc(C(=O)NS(=O)(=O)N(C)C)cc4n3C2)C[C@H](C)N1` yielded an EC50 of 0.05 to 1 µM.
`C[C@@H]1CN(C(=O)C2(F)Cc3ccccc3-c3c(C4CCCCC4)c4ccc(C(=O)O)cc4n3C2)C[C@H](O)O1` (stereo partly drawn) was tested, and the EC50 was 1 to 10 µM.
With `O=C(NS(=O)(=O)C1CC1)c1ccc2c(C3CCCCC3)c3n(c2c1)CCCc1ncccc1-3` the EC50 was 0.01 to 1 µM.
In the case of `COc1ccc2c(c1)CC(F)(C(=O)O)Cn1c-2c(C2CCCCC2)c2ccc(C(=O)NS(=O)(=O)N(C)C)cc21` (stereo not drawn), the EC50 is reported as 1 to 10 µM.
With `CC(C)(C)OC(=O)N1CCn2c(c(C3CCCCC3)c3ccc(C(=O)NS(C)(=O)=O)cc32)-c2ccccc21` the EC50 was 0.01 to 1 µM.
For `CC(C)(C)OC(=O)N1C/C=C\Cn2c(c(C3CCCCC3)c3ccc(C(=O)O)cc32)-c2cnccc21`, the EC50 was > 10 µM.
`NC(=O)C1(NC(=O)c2ccc3c(C4CCCCC4)c4n(c3c2)CC(=O)Nc2ccccc2-4)CCCC1` was tested, and the EC50 was 0.01 to 1 µM.
With `O=C(O)c1ccc2c(C3CCCCC3)c3n(c2c1)CC(C(=O)O)Cc1ccccc1-3` (stereo not drawn) [drawing 305] the EC50 was > 10 µM.
With `Cc1cc(CNC(=O)c2ccc3c(C4CCCCC4)c4n(c3c2)CC(C(=O)N2C[C@@H](C)O[C@@H](C)C2)=Cc2ccccc2-4)n[nH]1` the EC50 was 0.05 to 1 µM.
`N#Cc1ccc2c(C3CCCCC3)c3n(c2c1)CCCc1ncccc1-3` was tested, and the EC50 was 0.01 to 1 µM.
In the case of `O=C1Cn2c(c(C3CCCCC3)c3ccc(C(=O)NS(=O)(=O)N4CCN(c5ccccc5)CC4)cc32)-c2ccccc2N1`, the EC50 is reported as 1 to 10 µM.
`CN(C)CCNC(=O)C1=Cc2ccccc2-c2c(C3CCCCC3)c3ccc(C(=O)NC4(C(=O)Nc5ccc6c(c5)cc(C(=O)O)n6C)CCCC4)cc3n2C1` was tested, and the EC50 was 0.01 to 1 µM.
In the case of `COC(=O)c1ccc2c(C3CCCCC3)c3n(c2c1)CC(C(=O)N1CCOCC1)=C(C)c1ccccc1-3`, the EC50 is reported as 1 to 10 µM.
For `COC(=O)c1ccc2c(C3CCCCC3)c3n(c2c1)CC(C(=O)N1C[C@@H](C)O[C@@H](C)C1)=Cc1cc(OC)ncc1-3`, the EC50 was > 1 µM.
For `COC(=O)/C=C/c1ccc2[nH]c(C3(NC(=O)c4ccc5c(C6CCCCC6)c6n(c5c4)CC(=O)Nc4ccccc4-6)CCCC3)nc2c1`, the EC50 was < 0.1 µM.

The compounds below were run against T1, HCV NS5B RdRp genotype 1b (Hepatitis C virus genotype 1b, UniProt Q9WMX2) (assay: Modified HCV NS5B RdRp enzyme assay (with preincubation)). Settings: modified method (with preincubation).
T1 construct: The protein was expressed with an 18 amino acid C-terminal truncation to enhance the solubility; made in house; host or cells: E. coli BL21 (DE3), pET21a
T1 sequence (Q9WMX2 2420-2992): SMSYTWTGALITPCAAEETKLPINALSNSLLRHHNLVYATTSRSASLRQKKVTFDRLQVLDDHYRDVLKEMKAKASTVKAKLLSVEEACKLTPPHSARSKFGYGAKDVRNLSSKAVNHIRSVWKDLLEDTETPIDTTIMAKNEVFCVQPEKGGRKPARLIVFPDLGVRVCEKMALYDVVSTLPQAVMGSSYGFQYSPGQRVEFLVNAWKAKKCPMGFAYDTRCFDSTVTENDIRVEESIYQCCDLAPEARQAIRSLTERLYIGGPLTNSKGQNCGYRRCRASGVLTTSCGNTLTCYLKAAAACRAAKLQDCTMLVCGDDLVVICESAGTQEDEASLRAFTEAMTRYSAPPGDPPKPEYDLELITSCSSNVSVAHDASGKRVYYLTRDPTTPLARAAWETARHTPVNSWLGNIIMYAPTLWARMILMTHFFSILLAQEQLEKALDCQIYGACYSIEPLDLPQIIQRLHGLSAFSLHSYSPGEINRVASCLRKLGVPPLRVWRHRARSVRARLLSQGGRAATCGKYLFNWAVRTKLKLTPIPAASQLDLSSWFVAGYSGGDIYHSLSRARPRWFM
Type: biochemical
Method in brief: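 Seven-point IC50s were derived from SPA-based ³H-UTP incorporation after 4 h at 30 °C (Hepes pH 7.5, 2% DMSO). Compound was first mixed with 14 nM Δ18 NS5B genotype 1b enzyme. Then 0.2 nM polyA, 0.29 μM UTP and bead-bound oligo-dT12 (20 nM) were added.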
`O=C(O)c1ccc2c(C3CCCCC3)c3n(c2c1)CC(C(=O)N1CCOCC1)=Cc1cccnc1-3` showed an IC50 of 0.02 to 1 µM.
In the case of `O=C(NS(=O)(=O)c1ccccc1)c1ccc2c(C3CCCCC3)c3n(c2c1)C[C@@H](O)[C@@H](O)c1ncccc1-3`, the IC50 is reported as 0.02 to 1 µM.
`CN(C)S(=O)(=O)NC(=O)c1ccc2c(C3CCCCC3)c3n(c2c1)CC(C(=O)N1CCOCC1)=Cc1ccc(Cl)cc1-3` showed an IC50 of 0.02 to 1 µM.
`O=C(O)/C=C/c1ccc(NC(=O)C2(NC(=O)c3ccc4c(C5CCCCC5)c5n(c4c3)CC(C(=O)N3CCCCC3)Cc3ccccc3-5)CCCC2)cc1` (stereo not drawn) was tested, and the IC50 was 0.02 to 1 µM.
For `CS(=O)(=O)NC(=O)c1ccc2c(C3CCCCC3)c3n(c2c1)CCCc1ncccc1-3`, the IC50 was 0.02 to 1 µM.
Compound `CN(C)S(=O)(=O)NC(=O)c1ccc2c(C3CCCCC3)c3n(c2c1)CC(C(=O)N1CCNCC1)=Cc1ccccc1-3` has an IC50 of 0.02 to 1 µM.
With `Cn1cnc(S(=O)(=O)NC(=O)c2ccc3c(C4CCCCC4)c4n(c3c2)CCCc2ncccc2-4)c1` the IC50 was 0.02 to 1 µM.
With `O=C(NS(=O)(=O)C1CC1)c1ccc2c(C3CCCCC3)c3n(c2c1)CC(C(=O)N1CCOCC1)Cc1ccccc1-3` (stereo not drawn) [drawing 287] the IC50 was 0.02 to 1 µM.
In the case of `COC(=O)C1=C(C)c2ccccc2-c2c(C3CCCCC3)c3ccc(C(=O)OC)cc3n2C1`, the IC50 is reported as > 1 µM.
Work on `CN(C)S(=O)(=O)NC(=O)c1ccc2c(C3CCCCC3)c3n(c2c1)CCCc1ncccc1-3` yielded an IC50 of 0.02 to 1 µM.
In the case of `CC(C)(C)OC(=O)N1CCCCn2c(c(C3CCCCC3)c3ccc(C(=O)O)cc32)-c2cnccc21`, the IC50 is reported as > 1 µM.
Work on `O=C(O)c1ccc2c(C3CCCCC3)c3n(c2c1)CC(O)Cc1ccccc1-3` (stereo not drawn) yielded an IC50 of 0.02 to 1 µM.
`O=C(NS(=O)(=O)C1CC1)c1ccc2c(C3CCCCC3)c3n(c2c1)CCCc1ncccc1-3` showed an IC50 of 0.02 to 1 µM.
`CC(C)(C)OC(=O)N1CCn2c(c(C3CCCCC3)c3ccc(C(=O)NS(C)(=O)=O)cc32)-c2ccccc21` showed an IC50 of 0.02 to 1 µM.
With `CC(C)(C)OC(=O)N1C/C=C\Cn2c(c(C3CCCCC3)c3ccc(C(=O)O)cc32)-c2cnccc21` the IC50 was > 1 µM.
`NC(=O)C1(NC(=O)c2ccc3c(C4CCCCC4)c4n(c3c2)CC(=O)Nc2ccccc2-4)CCCC1` showed an IC50 of 0.02 to 1 µM.
With `O=C(O)c1ccc2c(C3CCCCC3)c3n(c2c1)CC(C(=O)O)Cc1ccccc1-3` (stereo not drawn) [drawing 305] the IC50 was 0.02 to 1 µM.
For `N#Cc1ccc2c(C3CCCCC3)c3n(c2c1)CCCc1ncccc1-3`, the IC50 was > 1 µM.
For `O=C1Cn2c(c(C3CCCCC3)c3ccc(C(=O)NS(=O)(=O)N4CCN(c5ccccc5)CC4)cc32)-c2ccccc2N1`, the IC50 was 0.02 to 1 µM.
Compound `CN(C)CCNC(=O)C1=Cc2ccccc2-c2c(C3CCCCC3)c3ccc(C(=O)NC4(C(=O)Nc5ccc6c(c5)cc(C(=O)O)n6C)CCCC4)cc3n2C1` has an IC50 of 0.02 to 1 µM.
With `COC(=O)c1ccc2c(C3CCCCC3)c3n(c2c1)CC(C(=O)N1CCOCC1)=C(C)c1ccccc1-3` the IC50 was > 1 µM.
With `COC(=O)/C=C/c1ccc2[nH]c(C3(NC(=O)c4ccc5c(C6CCCCC6)c6n(c5c4)CC(=O)Nc4ccccc4-6)CCCC3)nc2c1` the IC50 was 0.02 to 1 µM.

Same assay, conditions: preincubation protocol
Work on `COc1ccc2c(c1)CC(C(=O)N(CCO)CCO)Cn1c-2c(C2CCCCC2)c2ccc(C(=O)NS(=O)(=O)N(C)C)cc21` (stereo not drawn) yielded an IC50 of 0.01 to 1 µM.
Compound `C[C@@H]1CN(C(=O)C2=Cc3ccccc3-c3c(C4CCCCC4)c4ccc(C(=O)NC5(C(=O)Nc6nccs6)CCCC5)cc4n3C2)C[C@H](C)O1` has an IC50 of 0.01 to 1 µM.
Work on `C[C@@H]1CN(C(=O)C2=Cc3cc(F)ccc3-c3c(C4CCCCC4)c4ccc(C(=O)NS(=O)(=O)N(C)C)cc4n3C2)C[C@H](C)O1` yielded an IC50 of 0.01 to 1 µM.
Work on `C[C@@H]1CN(C(=O)C2=Cc3cc(F)ccc3-c3c(C4CCCCC4)c4ccc(C(=O)NS(=O)(=O)N(C)C)cc4n3C2)C[C@H](C)N1` yielded an IC50 of 0.01 to 1 µM.
`C[C@@H]1CN(C(=O)C2(F)Cc3ccccc3-c3c(C4CCCCC4)c4ccc(C(=O)O)cc4n3C2)C[C@H](O)O1` (stereo partly drawn) showed an IC50 of 0.01 to 1 µM.
For `COc1ccc2c(c1)CC(F)(C(=O)O)Cn1c-2c(C2CCCCC2)c2ccc(C(=O)NS(=O)(=O)N(C)C)cc21` (stereo not drawn), the IC50 was 0.01 to 1 µM.
With `Cc1cc(CNC(=O)c2ccc3c(C4CCCCC4)c4n(c3c2)CC(C(=O)N2C[C@@H](C)O[C@@H](C)C2)=Cc2ccccc2-4)n[nH]1` the IC50 was 0.01 to 1 µM.
With `COC(=O)c1ccc2c(C3CCCCC3)c3n(c2c1)CC(C(=O)N1C[C@@H](C)O[C@@H](C)C1)=Cc1cc(OC)ncc1-3` the IC50 was > 1 µM.
